Data reported in patent US11066412B2, “Substituted pyrrolo[2,1-a]phthalazines and benzo[g]pyrrolo[2,1-a]phthalazines for the treatment of cancer” (Academia Sinica, priority 2017, dated 2021).

Tested on: H460 lung cancer cells
Assay: cell cycle distribution by flow cytometry
Assay type: cell-based, human
Description: We further investigated the effects of BO-2590 on cell cycle progression in H460 lung cancer cells at the concentrations of 0, 0.125, 0.25, 0.5, 1 and 2 μM for 24, 48 and 72 hr. The cell cycle distribution was analyzed by flow cytometry. […] By increasing the concentration of BO-2590, significant arrest at the G2 phase was first observed, which was followed by the arrest of the S phase progression, and finally the G1 arrest appeared at 24 hr. However, following the incubation for 48 or 72 hr, while the cell cycle slowly processed, a significant amount of the sub-G1 cells started to appear (FIG. 6). The sub-G1 cells also represented apoptotic cells.

SMILES: Cc1c(CO)c(CO)c2c3ccccc3c(N3CCC(N4CCCCC4)CC3)nn12 [BO-2590, (6-([1,4′-Bipiperidin]-1′-yl)-3-methylpyrrolo[2,1-α]phthalazine-1,2-diyl)dimethanol]
- cell cycle progression (0.125-2 μM, 24, 48 and 72 hr, FIG. 5): dose-dependently interfered with cell cycle progression
- sub-G1 (apoptotic) cells (48 or 72 hr, FIG. 6): dose-dependently induced the sub-G1 cells
